Measured values published in PubChem BioAssay AID2060335 (Molecular Pharmacology Branch, DTP, NCI, 2025).

Tested on: DU-145 multicell spheroids with HUVEC/MSC, viability
Assay: Anticancer human tumor DU-145 cell line growth inhibition [IpAb];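 also: spheroids exposed to agents for seven days before measurement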;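 as to viability, T/C: percent of DMSO vehicle control viability so 100% = untreated level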
Settings: for IC50: curve of first compound; for viability, T/C: stronger effect = lower value
Procedure, shortened: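 Spheroids of 60% malignant cells, 25% HUVEC and 15% MSC were exposed to targeted agents combined with ipatasertib or abemaciclib. Doses started at or near clinical Cmax (10 microM when unknown) and fell in half-log steps.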

[1] = second compound 0.01 µM, first compound 0.0316 µM
[2] = second compound 0.01 µM, first compound 0.1 µM
[3] = second compound 0.01 µM, first compound 0.316 µM
[4] = second compound 0.01 µM, first compound 1 µM
[5] = second compound 0.01 µM, first compound 3.16 µM
[6] = second compound 0.01 µM, first compound 10 µM
[7] = second compound 0.0316 µM, first compound 0.0316 µM
[8] = second compound 0.0316 µM, first compound 0.1 µM
[9] = second compound 0.0316 µM, first compound 0.316 µM
[10] = second compound 0.0316 µM, first compound 1 µM
[11] = second compound 0.0316 µM, first compound 3.16 µM
[12] = second compound 0.0316 µM, first compound 10 µM
[13] = second compound 0.1 µM, first compound 0.0316 µM
[14] = second compound 0.1 µM, first compound 0.1 µM
[15] = second compound 0.1 µM, first compound 0.316 µM
[16] = second compound 0.1 µM, first compound 1 µM
[17] = second compound 0.1 µM, first compound 3.16 µM
[18] = second compound 0.1 µM, first compound 10 µM
[19] = second compound 0.316 µM, first compound 0.0316 µM
[20] = second compound 0.316 µM, first compound 0.1 µM
[21] = second compound 0.316 µM, first compound 0.316 µM
[22] = second compound 0.316 µM, first compound 1 µM
[23] = second compound 0.316 µM, first compound 3.16 µM
[24] = second compound 0.316 µM, first compound 10 µM
[25] = second compound 1 µM, first compound 0.0316 µM
[26] = second compound 1 µM, first compound 0.1 µM
[27] = second compound 1 µM, first compound 0.316 µM
[28] = second compound 1 µM, first compound 1 µM
[29] = second compound 1 µM, first compound 3.16 µM
[30] = second compound 1 µM, first compound 10 µM

Compound	IC50 (second compound 0.01 µM) [µM]	IC50 (second compound 0.0316 µM) [µM]	IC50 (second compound 0.1 µM) [µM]	IC50 (second compound 0.316 µM) [µM]	IC50 (second compound 1 µM) [µM]	viability, T/C [1] [%]	viability, T/C [2] [%]	viability, T/C [3] [%]	viability, T/C [4] [%]	viability, T/C [5] [%]	viability, T/C [6] [%]	viability, T/C [7] [%]	viability, T/C [8] [%]	viability, T/C [9] [%]	viability, T/C [13] [%]	viability, T/C [14] [%]	viability, T/C [19] [%]	viability, T/C [20] [%]	viability, T/C [25] [%]	viability, T/C [26] [%]	also measured
C=CC(=O)N1CCN(c2nc(=O)n(-c3c(C)ccnc3C(C)C)c3nc(-c4c(O)cccc4F)c(F)cc23)C(C)C1 (stereo not given) + CCN1CCN(Cc2ccc(Nc3ncc(F)c(-c4cc(F)c5nc(C)n(C(C)C)c5c4)n3)nc2)CC1	7.92	7.52	8.37	9.55	6.07	94.6	104	111	104	86.1	40.6	91.2	95	98.7	82.8	81	78.8	78.3	66.1	64.4	viability, T/C [10]: 96.5%; viability, T/C [11]: 81.5%; viability, T/C [12]: 39.4%; viability, T/C [15]: 91.5%; viability, T/C [16]: 93.3%; viability, T/C [17]: 78.4%; viability, T/C [18]: 44.8%; viability, T/C [21]: 82.4%; viability, T/C [22]: 85.8%; viability, T/C [23]: 77.3%; viability, T/C [24]: 49%; viability, T/C [27]: 65.9%; viability, T/C [28]: 70.5%; viability, T/C [29]: 67.5%; viability, T/C [30]: 37.3%
Cn1ncc(Cl)c1-c1cc(C(=O)NC(CN)Cc2cccc(F)c2)sc1Cl (stereo not given) + CCN1CCN(Cc2ccc(Nc3ncc(F)c(-c4cc(F)c5nc(C)n(C(C)C)c5c4)n3)nc2)CC1	0.135	0.0967	0.0803	0.0796	0.19	84.7	56.3	30.6	22.5	13.7	1.16	74.1	48.9	29.6	64.4	47.8	60	48.5	60.3	52	viability, T/C [10]: 19.6%; viability, T/C [11]: 14%; viability, T/C [12]: 0.22%; viability, T/C [15]: 29.4%; viability, T/C [16]: 19%; viability, T/C [17]: 13.4%; viability, T/C [18]: 0.82%; viability, T/C [21]: 32.8%; viability, T/C [22]: 23.4%; viability, T/C [23]: 16.4%; viability, T/C [24]: 0.85%; viability, T/C [27]: 50.2%; viability, T/C [28]: 30.9%; viability, T/C [29]: 25.8%; viability, T/C [30]: 0.53%
Cn1ncnc1[C@H]1c2n[nH]c(=O)c3cc(F)cc(c23)N[C@@H]1c1ccc(F)cc1 + CCN1CCN(Cc2ccc(Nc3ncc(F)c(-c4cc(F)c5nc(C)n(C(C)C)c5c4)n3)nc2)CC1	> 0.1	> 0.1	> 0.1	> 0.1	> 0.1	88.5	81.6	–	–	–	–	84.1	77.4	–	82.1	76	66.7	64.7	63.7	61.2	viability, T/C (second compound 0.01 µM, first compound 0.000316 µM): 99.7%; viability, T/C (second compound 0.01 µM, first compound 0.001 µM): 102%; viability, T/C (second compound 0.01 µM, first compound 0.00316 µM): 96.8%; viability, T/C (second compound 0.01 µM, first compound 0.01 µM): 89%; viability, T/C (second compound 0.0316 µM, first compound 0.000316 µM): 94.2%; viability, T/C (second compound 0.0316 µM, first compound 0.001 µM): 95.7%; viability, T/C (second compound 0.0316 µM, first compound 0.00316 µM): 84.5%; viability, T/C (second compound 0.0316 µM, first compound 0.01 µM): 79.1%; viability, T/C (second compound 0.1 µM, first compound 0.000316 µM): 90%; viability, T/C (second compound 0.1 µM, first compound 0.001 µM): 84.4%; viability, T/C (second compound 0.1 µM, first compound 0.00316 µM): 78.3%; viability, T/C (second compound 0.1 µM, first compound 0.01 µM): 73.4%; viability, T/C (second compound 0.316 µM, first compound 0.000316 µM): 81.9%; viability, T/C (second compound 0.316 µM, first compound 0.001 µM): 78%; viability, T/C (second compound 0.316 µM, first compound 0.00316 µM): 75.3%; viability, T/C (second compound 0.316 µM, first compound 0.01 µM): 73.3%; viability, T/C (second compound 1 µM, first compound 0.000316 µM): 67.9%; viability, T/C (second compound 1 µM, first compound 0.001 µM): 75.3%; viability, T/C (second compound 1 µM, first compound 0.00316 µM): 63.3%; viability, T/C (second compound 1 µM, first compound 0.01 µM): 65.8%
